Active and inactive are the calls of the source. For most assays here, no stated cut-off is given here; in the data, actives have a measured EC50 and inactives only a lower limit.
What was measured:
[1] = target: T1, Replicative DNA helicase DnaB (Mycobacterium tuberculosis, UniProt P9WMR3); test: DnaB intein splicing inhibitors, dose response, biochemical, cell-free fluorescence (AID 449749); type: functional
T1 sequence (P9WMR3 whole entry): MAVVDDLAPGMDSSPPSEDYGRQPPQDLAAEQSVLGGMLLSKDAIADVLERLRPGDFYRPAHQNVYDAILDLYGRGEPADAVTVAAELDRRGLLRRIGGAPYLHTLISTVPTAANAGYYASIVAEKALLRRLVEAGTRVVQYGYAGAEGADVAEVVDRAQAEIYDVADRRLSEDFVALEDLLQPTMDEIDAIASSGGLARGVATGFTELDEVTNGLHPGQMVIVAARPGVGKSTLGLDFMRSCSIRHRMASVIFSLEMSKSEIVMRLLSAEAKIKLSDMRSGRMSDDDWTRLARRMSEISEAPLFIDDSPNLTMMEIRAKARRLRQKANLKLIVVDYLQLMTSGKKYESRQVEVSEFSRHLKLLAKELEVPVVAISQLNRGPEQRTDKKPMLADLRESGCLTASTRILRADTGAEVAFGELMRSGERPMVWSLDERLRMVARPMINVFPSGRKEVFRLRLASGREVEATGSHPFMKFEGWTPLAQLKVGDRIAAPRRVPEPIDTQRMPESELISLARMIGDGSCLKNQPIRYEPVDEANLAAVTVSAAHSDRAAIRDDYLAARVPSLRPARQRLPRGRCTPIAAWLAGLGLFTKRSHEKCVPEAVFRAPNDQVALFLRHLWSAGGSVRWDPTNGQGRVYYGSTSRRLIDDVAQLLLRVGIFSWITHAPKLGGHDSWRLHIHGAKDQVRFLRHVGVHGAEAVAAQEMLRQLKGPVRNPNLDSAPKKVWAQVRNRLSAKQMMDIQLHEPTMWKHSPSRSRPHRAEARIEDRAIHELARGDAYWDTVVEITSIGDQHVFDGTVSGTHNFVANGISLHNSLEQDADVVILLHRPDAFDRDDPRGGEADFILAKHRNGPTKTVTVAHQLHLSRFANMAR

BJ [2] = test: cytotoxicity toward Ras-transformed BJeLR fibroblasts, dose response, cell-based, alamar blue fluorescence, cherrypicked samples (AID 2631); type: functional; details: Homo sapiens;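 further: confirmatory dose-response assay in RAS-dependent BJ fibroblasts engineered with TERT, LT and ST, with cytotoxicity read by fluorescence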
BJ [3] = test: cytotoxicity toward BJ-TERT fibroblasts, dose response, cell-based, RAS-independent, luminescence (AID 1933); type: functional; details: Homo sapiens
[4] = cytotoxicity toward DRD oncogenic fibroblasts, dose response, cell-based, non-viral oncogenic, luminescence (AID 1934); type: functional; details: Homo sapiens
Protein RecA = target: T2, Protein RecA (Mycobacterium tuberculosis, UniProt P9WHJ3); test: Fluorescence Cell-Free Homogeneous Dose Retest to Identify Inhibitors of RecA-Intein Splicing Activity. [Related pubchem assays (depositor defined):AID2097, AID2223, AID489010, AID492950]; type: functional
T2 sequence (P9WHJ3 whole entry): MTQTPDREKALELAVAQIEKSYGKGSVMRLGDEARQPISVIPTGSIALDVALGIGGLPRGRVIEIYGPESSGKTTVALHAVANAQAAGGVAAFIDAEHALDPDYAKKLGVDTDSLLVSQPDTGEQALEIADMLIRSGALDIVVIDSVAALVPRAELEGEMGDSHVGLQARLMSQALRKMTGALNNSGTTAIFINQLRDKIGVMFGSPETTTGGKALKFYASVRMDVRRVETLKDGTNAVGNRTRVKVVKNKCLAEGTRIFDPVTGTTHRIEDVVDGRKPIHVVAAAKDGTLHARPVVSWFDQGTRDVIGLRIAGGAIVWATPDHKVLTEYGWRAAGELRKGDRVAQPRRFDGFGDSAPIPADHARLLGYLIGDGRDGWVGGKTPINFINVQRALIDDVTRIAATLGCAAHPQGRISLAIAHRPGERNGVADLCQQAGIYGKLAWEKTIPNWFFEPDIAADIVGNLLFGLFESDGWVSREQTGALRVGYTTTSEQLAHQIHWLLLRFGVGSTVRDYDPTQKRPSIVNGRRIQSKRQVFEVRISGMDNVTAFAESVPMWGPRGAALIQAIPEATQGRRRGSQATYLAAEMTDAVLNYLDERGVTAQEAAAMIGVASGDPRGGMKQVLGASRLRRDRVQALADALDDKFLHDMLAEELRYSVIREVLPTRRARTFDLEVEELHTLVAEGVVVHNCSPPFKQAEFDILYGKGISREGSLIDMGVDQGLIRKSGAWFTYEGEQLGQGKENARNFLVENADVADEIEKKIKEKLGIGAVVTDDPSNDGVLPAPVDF

BJ [5] = test: cytotoxicity toward BJ-TERT-LT-ST fibroblasts, dose response, cell-based, RAS-independent, luminescence (AID 1935); type: functional; details: Homo sapiens;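 further: BJ fibroblasts immortalized with TERT plus LT and ST oncogenes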
[6] = growth suppression of beta-catenin-knockout colon cells, dose response, cell-based, HCT116, human colon tumor (AID 1045); type: functional;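 further: HCT116 colon tumor cells with beta catenin knocked out; cells exposed to compound for 60 hours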
[7] = growth suppression of PTEN-null colon cells, dose response, cell-based, HCT116 PTEN knockout (AID 1047); type: functional;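 further: HCT116 colon tumor cells with PTEN knocked out; cells exposed to compound for 60 hours before readout; potency for loss of cell viability measured by luminescence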
BJ [8] = test: cells; type: functional, cell-based; details: Homo sapiens
[9] = HEp-2 cell cytotoxicity, dose response, cytotoxicity control for RSV inhibitor project, HTS (AID 2410); type: functional; details: human respiratory syncytial virus
Beta-galactosidase = Beta-galactosidase (Escherichia coli, UniProt Q8VNN2); test: PubChem AID 485352; type: functional
Beta-galactosidase, sequence (Q8VNN2 whole entry): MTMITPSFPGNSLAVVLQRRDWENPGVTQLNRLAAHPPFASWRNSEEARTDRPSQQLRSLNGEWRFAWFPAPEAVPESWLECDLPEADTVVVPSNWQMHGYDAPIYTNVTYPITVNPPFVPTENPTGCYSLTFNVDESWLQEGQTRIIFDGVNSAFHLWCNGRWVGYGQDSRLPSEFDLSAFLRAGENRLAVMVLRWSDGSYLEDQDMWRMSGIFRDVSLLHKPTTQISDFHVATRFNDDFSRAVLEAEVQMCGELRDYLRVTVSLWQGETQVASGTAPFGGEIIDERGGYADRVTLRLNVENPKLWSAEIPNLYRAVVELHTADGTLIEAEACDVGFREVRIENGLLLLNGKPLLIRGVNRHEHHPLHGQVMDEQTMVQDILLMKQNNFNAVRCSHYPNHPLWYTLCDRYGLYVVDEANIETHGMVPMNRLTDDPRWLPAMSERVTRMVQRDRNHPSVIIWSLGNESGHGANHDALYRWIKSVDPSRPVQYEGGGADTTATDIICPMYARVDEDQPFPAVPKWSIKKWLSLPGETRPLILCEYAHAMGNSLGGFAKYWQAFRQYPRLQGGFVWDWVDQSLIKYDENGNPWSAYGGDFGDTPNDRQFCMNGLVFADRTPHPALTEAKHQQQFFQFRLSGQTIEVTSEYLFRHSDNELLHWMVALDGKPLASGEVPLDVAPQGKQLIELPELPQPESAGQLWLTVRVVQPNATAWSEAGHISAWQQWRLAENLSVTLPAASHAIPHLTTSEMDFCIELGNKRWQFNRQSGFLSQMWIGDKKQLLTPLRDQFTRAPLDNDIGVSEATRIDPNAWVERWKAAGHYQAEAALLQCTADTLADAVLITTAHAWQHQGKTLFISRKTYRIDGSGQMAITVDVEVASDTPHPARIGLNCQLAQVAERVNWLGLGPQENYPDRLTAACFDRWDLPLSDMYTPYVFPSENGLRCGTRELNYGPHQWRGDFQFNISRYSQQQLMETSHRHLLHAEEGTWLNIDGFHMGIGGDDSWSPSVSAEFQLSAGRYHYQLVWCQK

[10] = target: T3, Type-1 angiotensin II receptor (Homo sapiens, UniProt P30556); test: AT1 receptor antagonists, dose response, selectivity assay for APJ receptor antagonist project, cell-based, uHTS hits (AID 463214); type: functional;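 further: antagonist potency against angiotensin II stimulated AT1 response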
T3 sequence (P30556 whole entry): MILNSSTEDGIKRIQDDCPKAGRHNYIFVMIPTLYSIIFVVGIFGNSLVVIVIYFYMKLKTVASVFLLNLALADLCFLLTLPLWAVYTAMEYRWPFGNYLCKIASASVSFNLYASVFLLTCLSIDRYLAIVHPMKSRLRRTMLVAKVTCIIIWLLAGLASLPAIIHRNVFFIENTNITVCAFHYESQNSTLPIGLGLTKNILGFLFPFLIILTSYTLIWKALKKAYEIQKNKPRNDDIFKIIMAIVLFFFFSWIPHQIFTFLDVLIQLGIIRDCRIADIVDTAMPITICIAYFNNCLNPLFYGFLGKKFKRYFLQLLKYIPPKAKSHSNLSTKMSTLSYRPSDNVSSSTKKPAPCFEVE

Cytochrome P450 3A4 = Cytochrome P450 3A4 (Homo sapiens, UniProt P08684);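 further: CYP3A4 tested as one member of a cytochrome P450 panel screen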
Cytochrome P450 3A4, sequence (P08684 whole entry): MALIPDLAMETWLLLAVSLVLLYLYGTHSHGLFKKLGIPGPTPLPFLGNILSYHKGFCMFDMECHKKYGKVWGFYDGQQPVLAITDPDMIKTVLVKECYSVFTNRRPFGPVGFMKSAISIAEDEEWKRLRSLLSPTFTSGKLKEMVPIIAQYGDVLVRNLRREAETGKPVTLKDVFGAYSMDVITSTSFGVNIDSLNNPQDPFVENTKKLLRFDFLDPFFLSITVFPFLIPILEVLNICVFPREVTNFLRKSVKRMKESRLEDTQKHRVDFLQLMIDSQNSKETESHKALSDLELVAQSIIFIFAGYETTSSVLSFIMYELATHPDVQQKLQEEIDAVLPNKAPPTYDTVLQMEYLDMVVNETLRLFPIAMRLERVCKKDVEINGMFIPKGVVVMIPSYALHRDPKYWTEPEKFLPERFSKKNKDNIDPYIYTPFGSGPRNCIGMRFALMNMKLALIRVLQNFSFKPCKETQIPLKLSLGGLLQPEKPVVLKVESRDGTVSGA

[11] = inhibitors of firefly luciferase expression or activity, dose response, H4 neuroglioma cells, luminescence (AID 1990); type: functional, cell-based
INS1 = test: beta cell apoptosis inhibitors, cytokine rescue, dose response, luminescence, retest (AID 449756); type: functional, cell-based; details: Rattus norvegicus;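 further: cell death triggered by IL-1 beta plus TNF-alpha plus IFN-gamma mixture; protective hits raise ATP signal compared with cytokine alone wells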
HEK293 = test: inhibitors of LMP1-driven NF-kB reporter, dose response, cell-based, HEK293, luciferase, cherry-pick (AID 588343); type: functional; details: Homo sapiens
Streptococcus = test: Group A Streptococcus viability loss, dose response, counter-screen for streptokinase expression inhibitor project, luminescence, BacTiterGlo (AID 1915); type: functional, organism-based;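 further: potency for reduction of bacterial viability or growth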
[12] = Luminescence Cell-Based Dose Response HTS to Identify Inhibitors of 5'UTR Stem-Loop Driven Prion Protein mRNA Translation in H4 Neuroglioblastoma Cells. [Related pubchem assays: 1827 (Project Summary), 1813 (Primary HTS)]; type: functional
[13] = inhibitors of SNCA 5'UTR-driven reporter translation, confirmation, H4 neuroglioma cells, luminescence (AID 1988); type: functional, cell-based
[14] = test system: Streptococcus sp. 'group A'; test: growth inhibition of control SK(-) GAS strain, dose response, counter-screen for streptokinase expression inhibitor project, luminescence, kanamycin, BacTiterGlo, confirmation (AID 1900); type: functional, organism-based

Compound | EC50 (BJ [2]) | EC50 (BJ [3]) | EC50 [4] | EC50 (BJ [5]) | EC50 (Beta-galactosidase) | IC50 [10] | further results
Cc1ccc(C2=NN(C(=O)CCl)C(c3ccco3)C2)o1 (stereo not drawn) | 3.42 µM (active) | 3.33 µM (inconclusive) | 5.27 µM (active) | 11.1 µM (inconclusive) | – | – | AC50 [1]: 30.3 µM (active); EC50 (Protein RecA): 5.58 µM (active)
CCCCc1c(C)c(C#N)c2nc3ccccc3n2c1Cl | 0.57 µM (active) | 2.22 µM (active) | 2.76 µM (active) | 1.75 µM (inconclusive) | – | – | EC50 [6]: 1.52 µM (active); EC50 [7]: 1.88 µM (active); EC50 (BJ [8]): 2.85 µM (active)
COc1cc([C@H]2c3[nH]c4ccccc4c3C[C@H]3C(=O)N4[C@@H](c5cc(OC)c(OC)c(OC)c5)c5[nH]c6ccccc6c5C[C@H]4C(=O)N23)cc(OC)c1OC | > 133 µM (inactive) | 3.48 µM (active) | 5.02 µM (active) | 14.3 µM (inconclusive) | – | – | CC50 [9]: 19.1 µM (active); EC50 (BJ [8]): > 150 µM (inconclusive)
Cc1ccc(C(=O)COC(=O)CNC(=O)C(c2ccccc2)c2ccccc2)cc1[N+](=O)[O-] | – | – | – | – | > 40 µM (inactive) | 29.5 µM (not active) | AC50 (Cytochrome P450 3A4): 15.8 µM (inconclusive)
CCOc1ccc(NC2=c3c(Br)c(C)ccc3=NC2=O)cc1 | – | – | – | – | > 40 µM (inactive) | 7.77 µM (active) | –
O=C1Nc2ccccc2/C1=N/c1ccc(Br)cc1 | – | – | – | – | > 40 µM (inactive) | 7.4 µM (active) | –
Cc1[nH]n(-c2ccc(Br)cc2)c(=O)c1/C=N/NC(=O)c1ccccc1 | – | – | – | – | – | – | EC50 [11]: 7.9 µM (active); AC50 (INS1): 0.898 µM (active); AC50 (HEK293): 3.72 µM (active); EC50 (Streptococcus): 1.92 µM (active); EC50 [12]: 26.6 µM (active); EC50 [13]: 0.889 µM (active); EC50 [14]: 0.593 µM (active)

From ChEMBL document CHEMBL1201862, “PubChem BioAssay data set” (2004)
